PubChem BioAssay (NCI)
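48-hour exposure; five concentrations; linearly interpolated endpoints. The concentration for 50% growth inhibition is given as GI50. TGI denotes the concentration required for complete inhibition of growth.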

Columns and labels:
Experiment in all cases: DTP human tumour cell line panel, 48 h
HCC-2998 colon = test system: HCC-2998 colon
IGROV1 ovarian = test system: IGROV1 ovarian
K-562 leukemia = test system: K-562 leukemia
NCI-H23 lung = test system: NCI-H23 lung
OVCAR-3 ovarian = test system: OVCAR-3 ovarian
OVCAR-8 ovarian = test system: OVCAR-8 ovarian
SK-MEL-5 melanoma = test system: SK-MEL-5 melanoma
SW-620 colon = test system: SW-620 colon
UACC-257 melanoma = test system: UACC-257 melanoma
HS 578T breast = test system: HS 578T breast

Structure (SMILES)	TGI (HCC-2998 colon) [µM]	TGI (IGROV1 ovarian) [µM]	TGI (K-562 leukemia) [µM]	TGI (NCI-H23 lung) [µM]	TGI (OVCAR-3 ovarian) [µM]	TGI (OVCAR-8 ovarian) [µM]	TGI (SK-MEL-5 melanoma) [µM]	TGI (SW-620 colon) [µM]	TGI (UACC-257 melanoma) [µM]	TGI (HS 578T breast) [µM]	GI50 (HCC-2998 colon) [µM]	GI50 (HS 578T breast) [µM]	GI50 (K-562 leukemia) [µM]	GI50 (NCI-H23 lung) [µM]	GI50 (OVCAR-3 ovarian) [µM]	GI50 (OVCAR-8 ovarian) [µM]	GI50 (SK-MEL-5 melanoma) [µM]	GI50 (SW-620 colon) [µM]	GI50 (UACC-257 melanoma) [µM]	GI50 (IGROV1 ovarian) [µM]
O=C1NC(=O)c2c1n(Cc1ccccc1)c(=O)n2Cc1ccccc1	> 100	> 100	> 100	> 100	> 100	> 100	> 100	> 100	> 100											
CC1=N/C(=C\c2ccc(/C=C3/N=C(C)OC3=O)cc2)C(=O)O1	> 100	> 100	> 100	> 100	> 100	> 100	> 100	> 100	> 100											
CCc1cccc(C)c1NC(=O)CCc1nc(=S)[nH][nH]1	> 100	> 100	> 100	> 100	> 100	> 100	> 100	> 100	> 100											
O=c1c2ccccc2sc2c(CO)ccc(NCCN3CCCCC3)c12		15	5.36	10.3	7.71	15.5	3.19	11.2	3.76	15.9										
N#C/C(=C\c1cc(OCc2ccccc2)c(OCc2ccccc2)cn1)C(N)=O	> 100	> 100	> 100	> 100	> 100	> 100	> 100	> 100	> 100											
O=C1[C@@H]2C(c3c(Cl)cccc3Cl)=NO[C@@H]2C(=O)N1c1ccc(Cc2ccc(N3C(=O)[C@H]4C(c5c(Cl)cccc5Cl)=NO[C@H]4C3=O)cc2)cc1	> 100	> 100	> 100	> 100	> 100	> 100	> 100	> 100	> 100											
Cc1nc(N)nc(CCC(=O)Nc2cccc(C(F)(F)F)c2)c1-c1ccc(Cl)cc1	> 100	> 100	> 100	> 100	> 100	> 100	> 100	> 100	> 100											
CCc1ccccc1NC(=O)c1cccc([N+](=O)[O-])c1O	> 100	> 100	> 100	72.5	> 100	> 100	33.9	> 100	77											
CC(Br)C(=O)NC(CO)C(=O)O (stereo not drawn)		> 100	> 100	> 100	> 100	> 100	> 100	> 100	> 100	> 100										
CSC1=Nc2c(c(C)c(C)n2COC(CO)CO)C2=NC(=O)CN12	> 100		> 100	> 100	> 100	> 100	> 100	> 100	> 100	> 100	> 100	> 100	> 100	> 100	> 100	> 100	> 100	> 100	> 100	
O=C1CC(c2ccccc2)Oc2ccccc21 (stereo not drawn)	> 100	> 100	32.6	45.5		> 100	65.8		> 100	> 100										
COC(=O)OC1C(O[C@H]2C[C@H]3[C@@H]4CC=C5C[C@@H](O)CC[C@]5(C)[C@H]4CC[C@]3(C)[C@H]2[C@H](C)C(=O)CCC(C)C)OCC(O)C1OC1OCC(O)C(O)C1OC(=O)c1ccc(OC)cc1 (stereo partly drawn)	> 27.5	> 27.5		5.94	16.8	> 27.5	0.279	0.277	0.0562	0.0416	1.44	< 0.00275		0.138	0.345	3.17	0.014	0.00877	0.00543	0.0106
O=[N+]([O-])c1ccc(Cl)c2c([N+](=O)[O-])cccc12	> 10	> 10	> 10	> 10	> 10	> 10	> 10	> 10												
COc1ccc2c(c1)c(-c1nc(-c3c[nH]c4ncccc34)cs1)cn2CCCN1CCOCC1	4.34	8.69	4.95	8.75	7.93		3.35	5.24	3.81	6.92	2.04	2.08	2.08	2.68	2.57		1.83	2.26	2.04	2.09
CCN(CC)CCCNc1ccc(C)c2sc3ccccc3c(=O)c12	1.77	2.92		5.04	16.2	3.26	0.343	1.51	0.54	5.7	0.488	1.49		1.75	3.42	1.41	0.187	0.393	0.23	1.22
N#Cc1nc2c(S(=O)(=O)c3ccc(Cl)cc3)c(N)n(Nc3cccc(Cl)c3)c2nc1C#N	> 100	0.179			0.0132	> 100	0.657	0.0733	37.2		0.0161		0.0309	0.0324			0.115	0.014		0.0385
COC(=O)C1C(C(=O)OC)C2C(=O)C3C(C(=O)OC)C(C(=O)OC)C3C(=O)C12 (stereo not drawn)	> 100	> 100	> 100	> 100		> 100		> 100	> 100											
N#CC(C(=O)C(=O)Nc1c(Cl)cccc1Cl)c1ccccc1 (stereo not drawn)	> 100	> 100	> 100	> 100	> 100	> 100	> 100	> 100			> 100		> 100	> 100	> 100		> 100	> 100		> 100
COc1cc(Nc2cnc3ccc(C(F)(F)F)cc3n2)cc(OC)c1OC	> 100			> 100	> 100	> 100		> 100	> 100											

Structure (SMILES)	TGI (HCC-2998 colon) [µM]	TGI (IGROV1 ovarian) [µM]	TGI (K-562 leukemia) [µM]	TGI (NCI-H23 lung) [µM]	TGI (OVCAR-3 ovarian) [µM]	TGI (OVCAR-8 ovarian) [µM]	TGI (SK-MEL-5 melanoma) [µM]	TGI (SW-620 colon) [µM]	TGI (UACC-257 melanoma) [µM]	TGI (HS 578T breast) [µM]	GI50 (HCC-2998 colon) [µM]	GI50 (HS 578T breast) [µM]	GI50 (K-562 leukemia) [µM]	GI50 (NCI-H23 lung) [µM]	GI50 (OVCAR-3 ovarian) [µM]	GI50 (OVCAR-8 ovarian) [µM]	GI50 (SK-MEL-5 melanoma) [µM]	GI50 (SW-620 colon) [µM]	GI50 (UACC-257 melanoma) [µM]	GI50 (IGROV1 ovarian) [µM]
O=[N+]([O-])c1ccccc1C1SCc2nc3ccccc3n21 (stereo not drawn)		> 100	> 100	> 100		> 100	48.3	> 100	> 100											
CCCCCCCCCCCC[N+]1(CCCCCCCCCCCC)CCCC(C)C1 (stereo not drawn)	1.38			0.399	0.569			1.33		2.2	0.303	0.472		0.113	0.197			0.303		
Cc1ccc2c(c1)CN1c3ccc(C)cc3CN2C1c1ccccc1O		> 100	> 100	> 100	> 100	> 100	30.5	> 100												
O=C(Nc1ccc(N=C=S)cc1Cl)c1cc(Br)cc(Br)c1O		39.8	97.1	55.2	> 100	46.6	46.5	72.3	48.9	69.4										
COC(=O)/C=C(/C(=O)OC)C1(C)c2cc(C(=O)OC)c(C(=O)OC)c(N)c2C(=N)N1c1ccccc1 (stereo not drawn)	51.6	76.8	51.7	45.6	38.3	37.9														
OCc1cc2c(cn1)[nH]c1ccc(NCc3ccccc3)cc12	58.9	> 100	> 100	> 100	69.6	> 100	25.6	78.7	59.9											
O=C(NC1C(=O)NNC1c1cccc([N+](=O)[O-])c1)c1ccccc1 (stereo not drawn)	> 100	> 100		> 100	> 100	> 100	> 100	> 100	> 100											
O=C(NCCNCCO)c1ccc2c(c1)oc1cc3ccccc3c(=O)n12		> 50	> 50	> 50		> 50	32.1	> 50	> 50				46.7	22.5		15.7	12.6	18.1	19.6	16.5
COC(=O)C1C(=O)O[C@@H](c2ccc3c(c2)OCO3)C1C(=O)OC (mixture of isomers)	> 100	> 100	> 100	> 100	> 100	> 100	> 100	> 100	> 100											
NNC(=O)C(=O)N/N=C1/CCCC1C(=O)CCC(=O)Nc1ccc(Cl)cc1 (stereo not drawn)	> 100	> 100	> 100	> 100	> 100	> 100	> 100	> 100	> 100											
CCOC(=O)c1nc(C)oc1C(F)(F)F	> 100	> 100	> 100	> 100	> 100	> 100		> 100	> 100											
COc1nc2c(c(O)c(C)c(=O)n2OC2OCC(OC(C)=O)C(OC(C)=O)C2OC(C)=O)c(=O)n1C (stereo not drawn)	> 100	> 100	> 100	> 100		> 100	> 100	> 100												
CCn1c2c(c3ccccc3c1=O)C(=O)c1ccccc1-2		> 100	> 100	> 100	> 100	> 100	> 100	> 100	> 100	> 100										
COc1cc(CNc2nc3cc(N)cc(N)c3nc2-c2ccccc2)cc(OC)c1		55.7	9.23	> 100	4.52	8.1	41.7	> 100	> 100	> 100		8.53	3.6	16.2	1.86	2.8	13	4.45		8.62
COc1ccc2sc3c(NCCCN)nc4ccccc4c3c(=O)c2c1	3.34	3.19	3.4	3.43	3.32		3.37	3.44	3.88		1.66		1.11	1.76	1.77		1.82	1.76	1.91	1.67
FC(F)(F)Oc1cccc(-c2cc(NCCCCCCNc3cc(-c4cccc(OC(F)(F)F)c4)nc4ccc(N5CCCC5)cc34)c3cc(N4CCCC4)ccc3n2)c1	3.27	3.12			3.24	5.08	3.22	3.35	3.88		1.74				1.83	2.13	1.77	1.81	1.89	1.52
COCC([C@@H](O)C(O)C(=O)NCC[C@@H](C)c1nc(/C=C/CC2OC3(C[C@H](O)C2C)OC(C(C[C@H](O)C(C)[C@H](O)C(C)/C=C(C)/C(C)=C/C=C/C(C)=C/C#N)OC)[C@@H](OP(=O)(O)O)C3(C)C)co1)N(C)C (stereo partly drawn)	0.000325	0.000296		0.0021	0.000326	0.000423		0.000327	0.00232	0.000391										
COc1ccc(C(=O)c2cc(OC)c(OC)c(OC)c2OC)cc1O	65.1	> 100		> 100	7.65	> 100	> 100	> 100	> 100	> 100	6.15	3.41		3.71	2.83	4.06	2.93	2.99	4.75	7.5
C[C@]12Cc3cn[nH]c3C(=O)C1CC[C@@H]1C2CC[C@@]2(C)C1CC[C@@H]2O (stereo partly drawn)		> 100	> 100	> 100	> 100	> 100	> 100	> 100	> 100											
